pIC50: −log10 of the molar value.
What was measured:
[1] = tested on: MTAP Knockout HCT116 cells; experiment: Cell proliferation inhibition (CellTiter-Glo), MTAP knockout cells; format: cell-based; conditions: for Selectivity: HCT116 versus MTAP Knockout HCT116; for pIC50: Homo sapiens, HCT-116, MTAP Knockout HCT116 cells, 72-240 hours incubation, CellTiter-Glo
Text: (§1) Test Example 2: Determination of the inhibitory effect of the compounds of the present invention on the proliferation activity of HCT116 and MTAP Knockout HCT116 cells.
(§2) 1. Experimental objective: to determine the inhibitory effect of the compound on the proliferation activity of HCT116 wild-type and HCT116 MTAP knockout cells. 2. Experimental instruments: Centrifuge (Eppendorf 5810R); microplate reader (BioTek Synergy H1 or PerkinElmer Envision); pipette (Eppendorf or Rainin). 3. Experimental reagents: HCT116 and MTAP Knockout HCT116 cells were purchased from Nanjing Cobioer; Cell Titer-Glo was purchased from Promega (Cat. No. G7573); McCoy' 5A was purchased from Gibco (Cat. No. 12330031); FBS was purchased from Gibco (Cat. No. 10091148); PBS was purchased from Gibco (Cat. No. 10010023); trypsin was purchased from Gibco (Cat. No. 25200056); cell culture plates were purchased from Corning (Cat. No. 3610). 4. Experimental methods: HCT116 and MTAP Knockout HCT116 cells were cultured in McCoy'5A medium containing 10% FBS until an appropriate cell density was reached. The cells were then collected and adjusted to a suitable concentration using complete medium. The cell suspension was seeded into a 96-well plate at 90 µL per well and allowed to adhere overnight in a 37°C, 5% CO2 incubator. Compound solutions of various concentrations were prepared using DMSO and culture medium, with a vehicle control set. The compound solutions were added to the 96-well plate at 10 µL per well, and the plate was incubated in a 37°C, 5% CO2 incubator for an additional 72-240 hours. After incubation, CellTiter-Glo solution was added, and the mixture was mixed uniformly by shaking, followed by incubation in the dark for 10 to 30 minutes. Luminescence was measured using a Synergy H1 or Envision microplate reader. 5. Experimental data processing method: The inhibition rate was calculated using the luminescence signal values, and the concentrations along with the inhibition rates were subjected to non-linear regression curve fitting using Graphpad Prism software to obtain the IC50 values.

[2] = tested on: HCT116 wild-type cells; experiment: Cell proliferation inhibition (CellTiter-Glo), wild-type cells; format: cell-based; conditions: Homo sapiens, HCT-116, HCT116 wild-type cells, 72-240 hours incubation
Text: as §1, §2

[3] = target: T1, PRMT5/MEP50-MTA protein complex (Homo sapiens, UniProt O14744); experiment: Thermal shift assay: change in melting temperature of the PRMT5/MEP50-MTA protein complex; format: binding; conditions: compound 8 µM, PRMT5/MEP50 2 µM, MTA 2 µM; Tm minus DMSO vehicle control
T1 construct: purchased Viva Biotech
Text: Test Example 1: Determination of the ability of the compounds of the present invention to improve the thermal stability (melting temperature) of the PRMT5/MEP50-MTA protein complex.
1. Experimental objective: The objective of this test example is to determine the ability of the compound to improve the thermal stability of the PRMT5/MEP50-MTA protein complex, resulting in an increase in the protein melting temperature. 2. Experimental instruments: Quantitative PCR instrument (Quantstudio6 Flex) was purchased from Life Technologies; pipettes were purchased from Eppendorf or Rainin. 3. Experimental reagents and consumables: PRMT5/MEP50 protein was prepared by Viva Biotech; HEPES was purchased from Thermo Fisher Scientific (Cat. No. 15630080); DTT was purchased from Sigma (Cat. No. 43816-10ml); sodium chloride was purchased from Invitrogen (Cat. No. AM9760G); Protein Thermal Shift™ Dye Kit was purchased from Thermo Fisher Scientific (Cat. No. 4461146); methylthioadenosine (MTA) was purchased from Sigma (Cat. No. D5011). 4. Experimental methods: In this experiment, the thermal shift method was used to measure the change in the melting temperature (Tm) of the PRMT5/MEP50-MTA protein complex before and after compound binding, thereby characterising the ability of the compound to improve the thermal stability of the PRMT5/MEP50-MTA protein complex. A solution containing 50 mM HEPES, 10 mM DTT, 2 µM MTA, SYPRO Orange and 250 mM NaCl was prepared as the experimental buffer. Human PRMT5/MEP50 protein was added to a final concentration of 2 µM, and the mixture was incubated at room temperature for 30 minutes. The above reaction mixture was aliquoted into 8-strip PCR tubes at 19.5 µL per tube. Then 0.5 µL of test compound or DMSO was added to each tube, providing a total reaction volume of 20 µL and a final compound concentration of 8 µM. 2.5% DMSO was set as the vehicle control. After incubation at room temperature for 10 minutes, the PCR tubes were placed in a PCR instrument, and the melt curve function was selected to measure the melting temperature of the PRMT5/MEP50-MTA protein complex in different treatment groups (heated from 25°C to 95°C, 0.03°C/s). 5. Experimental data processing method: The experimental data files from the PCR instrument were imported into the thermal shift software to obtain the melting temperature (Tm) for each treatment group.

[4] = Pharmacokinetics in rats (plasma) after oral administration; conditions: male, SD, rat, 5 mg/kg
Protocol: Test Example 4: Determination of the pharmacokinetics of the compounds of the present invention in rats (plasma) after oral administration.
Study objective: SD rats were used as test animals to study the pharmacokinetic behaviour of the following example compounds in rats (plasma) after oral administration at a dose of 5 mg/kg. […] Test scheme 2.1 Test drugs: Vehicle formula: 0.5% CMC-Na (1% Tween 80); the examples of the present invention, prepared in house. 2.2 Test animals: 3 SD rats per group, male, purchased from Shanghai Bikai Keyi Biotechnology Co., Ltd., with animal license number (SCXK (Shanghai) 2018-0006, No.20180006037467). 2.3 Administration: 3 SD rats per group, male, were fasted overnight and then respectively administered PO at a dose of 5 mg/kg and a volume of 10 mL/kg. 2.4 Sample collection: 0.2 mL of blood was collected from the jugular vein of rats before administration and at 0, 0.25, 0.5, 1, 2, 4, 6, 8 and 24 h after administration, and placed in EDTA-K2test tubes, and the test tubes were centrifuged at 6,000 rpm at 4°C for 6 min to separate the plasma, which was stored at -80°C. The animals were fed 4 h after administration. 2.5 Sample treatment • 1) 160 uL of acetonitrile was added to 40 uL of plasma sample for precipitation, and after mixing, the mixture was centrifuged at 3,500 × g for 5-20 minutes. • 2) 100 uL of the treated supernatant solution was taken for LC/MS/MS analysis to determine the concentration of the test compounds. 2.6 Liquid phase analysis • Liquid phase conditions: Shimadzu LC-20AD pump; • Mass spectrometry conditions: AB Sciex API 4000 mass spectrometer; • Chromatographic column: phenomenex Gemiu 5 um C18 50 × 4.6 mm; • Mobile phase: solution A: 0.1% formic acid in water, solution B: methanol; • flow rate: 1.0 mL/min; Elution time: 0-4.0 min, with eluents as follows:
Experimental results and analysis: The main pharmacokinetic parameters were calculated using WinNonlin 8.2.

T1 sequence (O14744 whole entry): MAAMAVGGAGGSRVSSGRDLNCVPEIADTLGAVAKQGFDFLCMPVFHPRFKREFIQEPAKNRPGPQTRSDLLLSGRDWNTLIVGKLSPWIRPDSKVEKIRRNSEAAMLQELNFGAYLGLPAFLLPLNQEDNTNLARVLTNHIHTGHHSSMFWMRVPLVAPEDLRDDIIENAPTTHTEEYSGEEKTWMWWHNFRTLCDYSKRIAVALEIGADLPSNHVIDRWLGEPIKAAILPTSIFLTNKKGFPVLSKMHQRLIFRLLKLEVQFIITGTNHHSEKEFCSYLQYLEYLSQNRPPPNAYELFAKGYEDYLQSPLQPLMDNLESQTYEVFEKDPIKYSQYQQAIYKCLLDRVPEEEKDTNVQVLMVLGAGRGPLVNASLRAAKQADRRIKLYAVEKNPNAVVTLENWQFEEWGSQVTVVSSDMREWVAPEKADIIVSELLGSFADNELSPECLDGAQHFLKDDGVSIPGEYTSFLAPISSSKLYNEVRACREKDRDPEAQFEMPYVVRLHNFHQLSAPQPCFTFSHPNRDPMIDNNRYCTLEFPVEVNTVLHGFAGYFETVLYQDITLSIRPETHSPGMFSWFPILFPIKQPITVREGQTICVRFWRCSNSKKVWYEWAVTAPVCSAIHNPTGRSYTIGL
T1 sequence (Q9BQA1 whole entry partner): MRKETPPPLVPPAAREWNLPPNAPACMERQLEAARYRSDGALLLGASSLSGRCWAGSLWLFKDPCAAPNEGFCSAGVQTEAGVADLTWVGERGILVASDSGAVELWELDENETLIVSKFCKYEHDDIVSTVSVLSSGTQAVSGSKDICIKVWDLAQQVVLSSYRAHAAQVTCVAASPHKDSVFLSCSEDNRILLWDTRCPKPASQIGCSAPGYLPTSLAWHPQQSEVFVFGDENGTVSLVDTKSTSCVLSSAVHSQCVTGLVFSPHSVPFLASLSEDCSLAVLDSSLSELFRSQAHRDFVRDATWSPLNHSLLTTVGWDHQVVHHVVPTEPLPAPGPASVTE

Row | Structure (SMILES) | Selectivity [1] | pIC50 [1] | pIC50 [2] | ΔTm at 8 µM [3] | AUC(0-inf) [4] | Cmax [4] | MRT inf [4] | Tmax [4] | half-life [4]
1 | [2H]C([2H])([2H])NN(C(=O)c1ccc2nc(N)c3cnn(C)c3c2c1)C1COCc2c1ccn1c(C(F)(F)F)cnc21 (stereo not shown) [Example 436] | 185 | 8.05 | 5.78 | 11.5 °C | 2.03 µg·h/mL | 0.143 µg/mL | 14.9 h | 3.3 h | 10.8 h
2 | CCNN(C(=O)c1cc2c(cc1C)nc(N)c1cncn12)C1COCc2nc(C(F)(F)F)ccc21 (stereo not shown) [Example 277, 4-Amino-N'-ethyl-7-methyl-N-(2-(trifluoromethyl)-5,8-dihydro-6H-pyrano[3,4-b]pyridin-5-yl)imidazo[1,5-a]quinoxaline-8-carbohydrazide] | 17 | 7.92 | 6.68 | 12.9 °C | – | – | – | – | –
3 | CNN(C(=O)c1cc2c3c(c(N)nc2cc1C)COC3)C1COCc2nc(C(F)(F)F)ccc21 (stereo not shown) [Example 307, 4-Amino-7-methyl-N'-methyl-N-(2-trifluoromethyl-5,8-dihydro-6H-pyrano[3,4-b]pyridin-5-yl)-1,3-dihydrofuro[3,4-c]quinoline-8-carbohydrazide] | 73 | 7.82 | 5.98 | 12.7 °C | – | – | – | – | –
4 | Cc1cc2nc(N)c3cncn3c2cc1C(=O)N(C)[C@@H]1COCc2c1ccn1cc(C(F)(F)F)nc21 [Example 39-P1, (S)-4-amino-N,7-dimethyl-N-(2-(trifluoromethyl)-7,10-dihydro-8H-imidazo[1,2-a]pyrano[3,4-c]pyridin-7-yl)imidazo[1,5-a]quinoxaline-8-carboxamide] | 108 | 7.89 | 5.86 | 12.4 °C | – | – | – | – | –
5 | [2H]C([2H])([2H])NN(C(=O)c1cc2c3c(c(N)nc2cn1)COC3)[C@H]1COCc2c1ccn1c(C(F)(F)F)cnc21 (stereo in doubt) [Example 371-P1, (R)-4-amino-N'-(methyl-d3)-N-(3-(trifluoromethyl)-7,10-dihydro-8H-imidazo[1,2-a]pyrano[3,4-c]pyridin-7-yl)-1,3-dihydrofuro[3,4-c][1,7]naphthyridine-8-carbohydrazide] | 121 | 8.07 | 5.99 | 11.6 °C | 4.8 µg·h/mL | 1.6 µg/mL | 2.5 h | 0.8 h | 1.6 h
6 | CN(C(=O)c1ccc2nc(N)c3cnn(C)c3c2c1)C1COCc2c1ccn1cc(Br)nc21 (stereo not shown) [Example 37, 4-Amino-N-(2-bromo-7,10-dihydro-8H-imidazo[1,2-a]pyrano[3,4-c]pyridin-7-yl)-N,1-dimethyl-1H-pyrazolo [4,3-c] quinoline-8-carboxamide] | 166 | 8.04 | 5.82 | 11.3 °C | – | – | – | – | –
7 | CNN(C(=O)c1cc2c3c(c(N)nc2cn1)COC3)[C@@H]1COCc2c1ccn1c(C(F)(F)F)cnc21 [Example 285, 4-Amino-N'-methyl-N-(3-(trifluoromethyl)-7,10-dihydro-8H-imidazo[1,2-a]pyrano[3,4-c]pyridin-7-yl)-1,3-dihydrofuro[3,4-c][1,7]diazanaphthalene-8-carbohydrazide] | 120 | 8.00 | 5.94 | 11.6 °C | 4.98 µg·h/mL | 0.999 µg/mL | 4.8 h | 0.8 h | 4.2 h
8 | CN(C(=O)c1ccc2nc(N)c3cnn(C)c3c2c1)C1COCc2c1ccn1c(C(F)(F)F)cnc21 (stereo not shown) [Example 83, 4-Amino-N,1-dimethyl-N-(3-(trifluoromethyl)-7,10-dihydro-8H-imidazo[1,2-a]pyrano[3,4-c]pyridin-7-yl)-1H-pyrazolo[4,3-c]quinoline-8-carboxamide] | 164 | 8.32 | 6.10 | 11.8 °C | – | – | – | – | –
9 | CNN(C(=O)c1cc2c(cn1)nc(N)c1cnn(C)c12)[C@@H]1COc2cc(S(F)(F)(F)(F)F)ccc21 (single isomer, unassigned) [Example 375-P1] | 17 | 8.10 | 6.88 | 13 °C | 2.13 µg·h/mL | 0.287 µg/mL | 5 h | 1.3 h | 3.3 h
10 | CNN(C(=O)c1ccc2nc(N)c3cnn(C)c3c2c1)C1COCc2nc(S(F)(F)(F)(F)F)ccc21 (stereo not shown) [Example 448] | 44 | 8.11 | 6.46 | 12.3 °C | – | – | – | – | –
11 | [2H]C([2H])([2H])NN(C(=O)c1cc2c3c(c(N)nc2cn1)COC3)[C@@]1([2H])COCc2c1ccn1c(C(F)(F)F)cnc21 [Example 354-P1, (R)-4-amino-N'-(methyl-d3)-N-(3-(trifluoromethyl)-7,10-dihydro-8H-imidazo[1,2-a]pyrano[3,4-c]pyridin-7-yl-7-d)-1,3-dihydrofuro[3,4-c][1,7]naphthyridine-8-carbohydrazide] | 107 | 7.64 | 5.61 | 11.6 °C | – | – | – | – | –
12 | [2H]C([2H])([2H])NN(C(=O)c1ccc2nc(N)c3cnn(C)c3c2c1)[C@@H]1COCc2nc(C(F)(F)F)ccc21 [Example 317] | 130 | 8.41 | 6.29 | 11.6 °C | 0.739 µg·h/mL | 0.24 µg/mL | 2.8 h | 1 h | 1.9 h
13 | [2H]C([2H])([2H])NN(C(=O)c1cc2c3c(c(N)nc2cc1C)COC3)C1COCc2c1ccn1c(C(F)(F)F)cnc21 (stereo not shown) [Example 357, 4-Amino-7-methyl-N'-methyl-d3-N-(3-trifluoromethyl-7,10-dihydro-8H-imidazo[1,2-a]pyrano[3,4-c]pyridin-7-yl)-1,3-dihydrofuro[3,4-c]quinoline-8-carbohydrazide] | 100 | 8.12 | 6.12 | 12.2 °C | 1.08 µg·h/mL | 0.36 µg/mL | 2.2 h | 0.7 h | 1.2 h
